Article PMC10906223 (JCI Insight, 2024)
Several values for one entry are separate records, joined by “and”; a condition that tells them apart may be missing. Equal values may be shown once.

How the values were obtained:
[1] = system: dispersed islet cells of donors with T1D; experiment: Glucagon secretion from dispersed islet cells of donors with T1D; assay type: cell-based, human; conditions: for Secretion of glucagon: dispersed islet cells, T1D donors, one value per donor, Figure 2H
Description: Pancreata of nondiabetic C57BL/6J mice were digested using collagenase P (Roche Diagnostics, catalog 11213873001), and islets were manually picked up using a stereomicroscope (ZEISS Stemi 305). […] Isolated mouse islets or provided human islets were dispersed as described ([28]). Briefly, 100–120 islets were washed 2 times using modified HBSS, then dispersed in 600 μL Accutase (Innovative Cell Technologies, catalog AT-104) by gently pipetting up and down for 7 minutes at 37°C. […] Following refreshing of KRBH, cells were dispensed in 8 microfuge tubes (2,000 cells/tube) and treated with WCDD301, preclustered Ephrin-A5 Fc, or preclustered Fc in the presence or absence of the competitive inhibitor of EphA4 receptor, rhyncophylline ([60]) (MilliporeSigma, catalog SML2345). In the presence or absence of these effectors, secretion assay was performed sequentially as shown in Supplemental Table 5. […] Preclustering of Ephrin-A5 Fc was done by mixing Ephrin-A5 Fc or Fc alone (BioLegend, catalog 790102) with anti-Fc antibody (Invitrogen, catalog A16086) (1:10 molar ratio) 20 minutes before treatment ([62]). […] Shedding of cleaved EphA4 was measured from the cell culture medium. Experiments were performed by dispersion of 200 islets, and EphA4 levels in media were measured by EphA4 ELISA (ABclonal, catalog RK06572).
The Integrated Islet Distribution Program provided us human donor islets with their characteristics (Supplemental Table 6). Islets were centrifuged at 500g for 3 minutes, resuspended in CMRL 1066 medium (Gibco, catalog 1150-037) containing 11 mM glucose, and rested in an incubator overnight.
For the hormone secretion assay, islets or dispersed islet cells were adapted in KRBH buffer containing 11 mM glucose for 1 hour. Then, after 2 washes in HBSS containing 11 mM glucose, islets or cells were treated in the following sequential order in the presence or absence of WCDD301: incubation in KRBH (1 mM glucose, 30 minutes) followed by medium collection, incubation in KRBH (11 mM glucose, 30 minutes) followed by medium collection.

[2] = system: human dispersed islet cells; experiment: Immunofluorescence: F-actin intensity in glucagon+ human dispersed islet cells; assay type: cell-based;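 on F-actin intensity: ImageJ intensity within ROI drawn around each glucagon+ cell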
Description: Coverslips were treated with WCDD301, preclustered Ephrin-A5 Fc, or preclustered Fc in the following sequential order: KRBH (11 mM glucose, 30 minutes), KRBH (1 mM glucose, 60 minutes), KRBH (1 mM glucose, 30 minutes), and KRBH (11 mM glucose, 60 minutes). After treatment, coverslips were washed once in PBS, fixed in 2% paraformaldehyde in PBS (30 minutes), and again washed in PBS. […] Following wash in PBS, coverslips were incubated in a mixture of Alexa Fluor 555 Phalloidin (Cell Signaling Technology, catalog 8953) and secondary antibodies (goat anti-rabbit Alexa Fluor 488, catalog A-21094, 1:1,000, Molecular Probes; and goat anti-mouse Alexa Fluor 633, catalog A21052, 1:1,000, Life Technologies) for 1 hour at RT. Both primary and secondary antibodies were diluted in blocking buffer containing 0.05% Tween 20. Coverslips were washed using PBS and counterstained by using DAPI (1:1,000) for 10 minutes. Following 2 washes in PBS, coverslips were mounted on glass slides using ProLong Glass Antifade Mountant (Invitrogen, catalog P36980). Images were captured using the Zeiss LSM880 microscope with a Plan-Apochromat 63× 1.4 NA objective lens by setting dual-band dichroic/filter for 405, 488, 561, and 633 nm laser excitation. For each slide, 25–30 fields of view were scanned, and in each field of view, 3–5 cells were imaged. […] Values of intensity were compared among groups using 1-way ANOVA, α = 0.05.

[3] = Plasma stability assay, CD-1 mouse plasma; assay type: in vitro ADME; conditions: for Ln (% Remaining): mouse plasma, 37°C, Figure 5B
Description: Pooled frozen plasma of CD-1 mice (n = 20; catalog MSE00PLK2M2N, Beijing Vital River Laboratory Animal Technology) or humans (n = 6, catalog […]2P2N, Bioreclamation IVT), equal numbers of males and females, was thawed in a 37°C water bath, and residual clots were removed by centrifugation (500g for 5 minutes). Plasma (98 μL) was aliquoted in each well of 96-well reaction plates using an Apricot automation workstation. WCDD301 (100 μM) or propantheline bromide (100 μM, as a positive control) was added (2 μL/well) to sets of wells assigned to blank or time points (T0, T10, T30, T60, and T120 minutes) and incubated at 37°C. At each time point, the reaction was stopped by adding stop solution (500 μL; a mixture of 200 ng/mL of tolbutamide and labetalol in acetonitrile), mixed thoroughly, sealed, shaken (20 minutes), and centrifuged (1,750g, 4°C, 20 minutes). A total of 150 μL of the supernatant from each well of the reaction plate was transferred to its corresponding bioanalysis plate for LC-MS/MS analysis. The remaining level (%) of the WCDD301 was calculated using the following equation: remaining (%) = (PAR at each time point/PAR at T0) × 100. PAR stands for the peak area ratio of the WCDD301 versus internal standard.

diabetic NOD mice [4] = experiment: Plasma insulin in NOD mice after treatment; assay type: in vivo, mouse; conditions: WCDD301-treated diabetic NOD mice; Figure 6C
Description: Terminal blood was collected into microfuge tubes containing K2-EDTA (supplemented by 45 mM phenylmethylsulphonyl fluoride and 0.77 μM aprotinin) through cardiac puncture. Plasma was separated by centrifugation (2,000g for 10 minutes at 4°C) and kept at –80°C until analysis. Plasma samples with hemolysis were excluded from the study. […] Values of BUN, creatinine, ALB, ALT, and AST were determined by a Roche Cobas C501 Autoanalyzer as performed by the Washington University Diabetes Research Center Translational Diagnostics Core. Reference intervals of blood chemistry parameters for inbred NOD mice were extracted from the Mouse Phenome Database (https://phenome.jax.org/).

diabetic NOD mice [5] = experiment: Daily urine glucose in NOD mice; assay type: in vivo, mouse
Description: We preweighed WCDD301 into microfuge tubes and reconstituted it using deionized water. Using a 10 μL pipette tip, we placed the calculated dose of WCDD301 (at the volume range of 1–1.5 μL) within the center of pearls. WCDD301 was placed into pearls 30–45 minutes before administration. For oral administration of pearls, we designed an applicator using a disposable plastic transfer pipette and syringe plunger lubricated with olive oil. Food intake and body weight in each experimental group (diabetic WCDD301-treated, diabetic placebo-treated, and nondiabetic placebo-treated NOD mice) were monitored daily for 4 weeks. Urine glucose was measured from individually caged NOD mice (nondiabetic placebo treated n = 2, diabetic placebo treated n = 2, and diabetic WCDD301 treated n = 4, 21–23 weeks old) with metabolic cages. Urine glucose was monitored every 24 hours for 10 days by semiquantitative measurements (P-STICKS, Millpledge Veterinary).

Structure (SMILES): CC(=O)OCC(N)(COC(C)=O)COC(C)=O [WCDD301, 2-(acetoxymethyl)-2-aminopropane-1,3-diyl diacetate]
- Effect on glucagon secretion ([1]; dispersed islet cells from donors with long-standing T1D): reduced glucagon secretion
- Secretion of glucagon ([1]; 1 mM glucose): 13.445 and 14.59
- Secretion of glucagon ([1]; 11 mM glucose): 27.55 and 31.85
- F-actin intensity ([2]; human cells, individual values, Figure 3E): 9.0 and 7.2 and 6.5 and 10.4 and 8.2 and 4.2 and 10.3 and 9.6 and 6.8
- Effect on intracellular F-actin ([2]; α cells, human donors): increased intracellular F-actin density
- half-life at 2 µM ([3]; both sexes, CD-1, mouse, plasma): 1.75 h
- Ln (% Remaining) ([3]; 10 min): -0.4
- Ln (% Remaining) ([3]; 60 min): -0.55
- Ln (% Remaining) ([3]; 120 min): -0.94
- Plasma insulin (diabetic NOD mice [4]): Undetectable
- Daily urine glucose (Figure 7D) (diabetic NOD mice [5]; Diabetic, WCDD301 treated, Day 10): 0
- Urine glucose, daily monitoring (diabetic NOD mice [5]; diabetic WCDD301-treated mice): phenotypes similar to nondiabetic placebo-treated mice
